Laboratory results as given in article PMC9504748, “Discovery of Flavonoids as Novel Inhibitors of ATP Citrate Lyase: Structure–Activity Relationship and Inhibition Profiles” (International Journal of Molecular Sciences, 2022).
Like-named read-outs stand apart in the source and are kept apart here.

Key:
ACLY [1] = target: T1, ACLY (Homo sapiens, UniProt P53396); assay: ACLY enzymatic inhibition assay (ADP-Glo Kinase Assay); assay type: biochemical; details: for IC50: concentration-response curves; for inhibition rate: preliminary screening, concentration of 10 µm;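 for all read-outs here: purified recombinant His-tagged human ACLY, compounds preincubated with enzyme 15 min, then ADP formed measured as luciferase luminescence after ADP-Glo reagent depletes leftover ATP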
T1 construct: His; made in house; host or cells: Escherichia coli BL21(DE3)
T1 sequence (P53396 1-1101): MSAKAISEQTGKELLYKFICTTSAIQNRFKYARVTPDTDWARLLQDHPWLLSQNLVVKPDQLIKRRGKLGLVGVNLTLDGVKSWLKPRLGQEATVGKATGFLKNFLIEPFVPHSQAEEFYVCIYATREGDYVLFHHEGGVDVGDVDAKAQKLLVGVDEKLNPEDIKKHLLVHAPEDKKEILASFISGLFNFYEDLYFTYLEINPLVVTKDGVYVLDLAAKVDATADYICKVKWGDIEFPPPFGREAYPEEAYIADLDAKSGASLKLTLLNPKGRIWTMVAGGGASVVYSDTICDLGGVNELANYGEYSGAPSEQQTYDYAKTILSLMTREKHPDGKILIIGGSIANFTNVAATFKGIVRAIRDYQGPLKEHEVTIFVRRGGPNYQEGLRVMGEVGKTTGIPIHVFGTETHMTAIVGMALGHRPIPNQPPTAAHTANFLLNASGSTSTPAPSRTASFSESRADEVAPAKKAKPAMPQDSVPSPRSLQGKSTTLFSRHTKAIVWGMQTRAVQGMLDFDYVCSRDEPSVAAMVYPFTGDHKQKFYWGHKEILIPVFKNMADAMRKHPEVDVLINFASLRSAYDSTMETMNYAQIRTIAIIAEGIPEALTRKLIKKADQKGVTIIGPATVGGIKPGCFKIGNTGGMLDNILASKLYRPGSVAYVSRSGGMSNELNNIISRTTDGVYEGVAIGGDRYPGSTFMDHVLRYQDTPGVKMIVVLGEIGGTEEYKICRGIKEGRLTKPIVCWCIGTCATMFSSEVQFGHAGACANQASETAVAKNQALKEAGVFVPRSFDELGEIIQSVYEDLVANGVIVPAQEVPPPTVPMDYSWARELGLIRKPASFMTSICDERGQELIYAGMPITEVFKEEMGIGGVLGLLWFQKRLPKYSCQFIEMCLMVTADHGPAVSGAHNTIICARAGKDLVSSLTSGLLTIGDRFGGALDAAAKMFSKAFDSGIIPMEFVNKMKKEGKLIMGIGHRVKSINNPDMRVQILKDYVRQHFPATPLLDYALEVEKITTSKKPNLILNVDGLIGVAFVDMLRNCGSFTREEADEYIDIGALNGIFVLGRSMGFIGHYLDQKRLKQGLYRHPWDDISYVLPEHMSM

ACLY [2] = target: T1, ACLY; assay: Enzymatic kinetic studies (Michaelis-Menten, Lineweaver-Burk); assay type: biochemical
Description: The inhibition profile of herbacetin against ACLY was determined by the Michaelis–Menten equation and Lineweaver–Burk curve. Reaction rates were recorded separately at different concentrations of substrates with various inhibitor concentrations. […] For competitive inhibition, Vmax is constant, Km decreases; for noncompetitive inhibition, Km is constant, Vmax decreases; for uncompetitive inhibition, both Vmax and Km decrease, while Km/Vmax is constant. Ki values could be calculated according to the following equations. [table]

ACLY [3] = target: T1, ACLY; assay: Thermal shift assay (Sypro Orange); assay type: binding; details: DMSO control 54.5 °C
Description: The thermal shift assay was conducted in a real-time PCR machine (Bio-Rad, Hercules, CA, USA). Sypro Orange fluorescent dye was used to monitor protein folding/unfolding. Purified ACLY and compound solutions were preincubated in low-profile PCR tubes for 15 min at room temperature, and then Sypro Orange was added and incubated for another 15 min on ice. The total volume was 20 μL. The final concentration of ACLY was 1.45 μM and Sypro Orange was 12.5×. The PCR tubes were heated from 25 to 90 °C at a heating rate of 0.5 °C/10 s. The fluorescence intensity changes in each well were recorded. Tm (transition midpoint) was read from the melting curve.

ACLY [4] = target: T1, ACLY; assay: Western blotting analysis of ACLY thermal stability; assay type: binding
Description: Purified ACLY was preincubated with compounds or DMSO in tubes at room temperature for 15 min. The final concentration of ACLY was 0.58 μM. Then the solution was aliquoted into 200 μL PCR tubes and heated at the indicated temperature for 3 min. […] The SDS–PAGE samples were prepared in 1× loading buffer. A separation gel (8%) and stacking gel (5%) were used to separate and transfer target proteins onto PVDF membranes (0.45 μm). The membranes were blocked at room temperature for 1 h with a blocking solution (Beyotime, Shanghai, China), followed by addition of a primary antibody at room temperature for another 2 h. HRP-linked IgG was used as the secondary antibody and incubated at room temperature for 1 h. Protein bands were imaged by molecular imager ChemiDoc XRS+ (Bio-rad, Hercules, CA, USA).

[5] = Cell-free aggregation assay (DMR, Epic BT system); assay type: physicochemical; details: for critical aggregation concentration (CAC): reaction buffer, DMR responses at a fixed time
Description: The aggregation assay was performed using an Epic BT system (Corning, NY, USA). Reaction buffer (30 μL) was aliquoted in an Epic 384-well microplate (Corning, NY, USA) and equilibrated for 1 h. Then 10 μL compound solution was added and the microplate was placed on the Epic reader. Dynamic mass redistribution (DMR) signals were recorded for 1 h.

ACLY [6] = target: T1, ACLY; details: cited from earlier work
[7] = test system: mice fed on a high-fat diet; set-up: method as in PMID 17383874; details: cited from earlier work
human ACLY = test system: human ACLY; set-up: method as in PMID 30944472; details: cited from earlier work
[8] = natural ACLY inhibitors, discussion, no reference given

Compound `O=c1c(O)c(-c2ccc(O)cc2O)oc2cc(O)cc(O)c12` [compound 87, Morin] has an IC50 (ACLY [1]) of 4070 ± 690 nM.
For `COc1cc(-c2oc3cc(O)cc(O)c3c(=O)c2O)ccc1O` [compound 44, Isorhamnetin], the IC50 (ACLY [1]) was 49700 ± 14800 nM.
In the case of `O=C(O)[C@H]1O[C@@H](Oc2cc3oc(-c4ccc(O)cc4)cc(=O)c3c(O)c2O)[C@H](O)[C@@H](O)[C@@H]1O` [compound 53, Scutellarin], the IC50 (ACLY [1]) is reported as 3770 ± 260 nM.
With `Oc1cc(O)c2c(c1)OC(c1ccc(O)c(O)c1)C(O)C2` (centres unmarked) [compound 73, Catechin] the IC50 (ACLY [1]) was 23600 ± 19200 nM.
For `O=c1c(O)c(-c2ccc(O)cc2)oc2c(O)c(O)cc(O)c12` [compound 18, Herbacetin], the Ki (ACLY [2]; ATP as substrate) was 290 nM, the Ki (ACLY [2]; CoA as substrate) was 190 nM and the Ki (ACLY [2]; citric acid (CA) as substrate) was 110 nM. For the same compound, the inhibition pattern (ACLY [2]; towards CA, ATP and CoA) was “noncompetitive inhibitor”, the “Tm of ACLY” value (ACLY [3]; 40 μM herbacetin) was 55.5 °C and the “Tm of ACLY” value (ACLY [3]; 200 μM herbacetin) was 56.5 °C. The “stability of ACLY at a temperature gradient vs control” value (ACLY [4]; 200 μM, significant at 52, 57, 60 and 62 °C) was “more stable”, the “isothermal dose-response of ACLY stability” value (ACLY [4]; 57 °C, different concentrations) was “concentration–dependent effect” and the IC50 (ACLY [1]) was 500 ± 80 nM. The inhibition rate (ACLY [1]) was 96.07%, the “fold more active compared with kaempferol” value (ACLY [1]; ratio of IC50 values) was 20 fold and the “DMR responses (aggregation state)” value ([5]; up to 100 μM) was “negligible DMR responses”.
`O=c1c(O)c(-c2ccc(O)cc2)oc2cc(O)cc(O)c12` [compound 30, Kaempferol] showed an IC50 (ACLY [1]) of 10200 ± 1070 nM.
`C[C@@H]1O[C@@H](Oc2cc(O)c3c(=O)c(O)c(-c4ccc(O)c(O)c4)oc3c2)[C@H](O)[C@H](O)[C@H]1O` [compound 106, 7-(α-L-Rhamnopyranosyloxy)-2-(3,4-dihydroxyphenyl)-3,5-dihydroxy-4H-1-benzopyran-4-one] gave an IC50 (ACLY [1]) of 570 ± 90 nM.
Compound `O=c1cc(-c2ccc(O)cc2)oc2cc(O)cc(O)c12` [compound 21, Apigenin] has an IC50 (ACLY [1]) of 19100 ± 11600 nM.
For anthrone, the IC50 (ACLY [6]; [8]) is listed as 280 nM.
For `O=C(O)CC(O)(C(=O)O)C(O)C(=O)O` (centres unmarked) [Hydroxycitric acid], the Ki (ACLY [6]) is given as 3000 nM and the Ki (ACLY [6]; [8]) is given as 300000 nM.
Work on `O=c1cc(-c2ccc(O)cc2)oc2cc(O)c(O)c(O)c12` [compound 52, Scutellarein] yielded an IC50 (ACLY [1]) of 710 ± 60 nM and an inhibition rate (ACLY [1]) of 91.80%.
With `O=c1c(O)c(-c2cc(O)c(O)c(O)c2)oc2cc(O)cc(O)c12` [compound 89, Myricetin] the IC50 (ACLY [1]) was 570 ± 30 nM and the “critical aggregation concentration (CAC)” value [5] was 1.82 µM.
In the case of `O=c1cc(-c2ccc(O)c(O)c2)oc2cc(O)cc(O)c12` [compound 51, Luteolin], the IC50 (ACLY [1]) is reported as 640 ± 130 nM, the inhibition rate (ACLY [1]) is reported as 88.28% and the “activity fold higher than that of apigenin” value (ACLY [1]; ratio of IC50 values) is reported as 30 fold.
For `O=c1cc(-c2ccc(O)c(O)c2)oc2cc(O)c([C@@H]3O[C@H](CO)[C@@H](O)[C@H](O)[C@H]3O)c(O)c12` [compound 14, Isoorientin], the IC50 (ACLY [1]) was 1860 ± 290 nM.
`O=c1c(O[C@@H]2O[C@H](CO)[C@@H](O)[C@H](O)[C@H]2O)c(-c2ccc(O)c(O)c2)oc2cc(O)cc(O)c12` [compound 20, Isoquercetin] showed an IC50 (ACLY [1]) of 2140 ± 120 nM.
`O=c1c(O[C@@H]2O[C@H](CO)[C@H](O)[C@H](O)[C@H]2O)c(-c2ccc(O)c(O)c2)oc2cc(O)cc(O)c12` [compound 6, Hyperoside] showed an IC50 (ACLY [1]) of 1530 ± 80 nM.
In the case of `Oc1cc(O)c2c(c1)O[C@H](c1ccc(O)c(O)c1)[C@H](O)C2` [compound 75, Epicatechin], the IC50 (ACLY [1]) is reported as 31600 ± 9450 nM.
In the case of `COc1ccc(-c2ccccc2)cc1NS(=O)(=O)c1cc(Cl)cc(Cl)c1O` [BMS–303141], the “plasma cholesterol, triglyceride and glucose levels” value [7] is listed as “lowered plasma cholesterol, triglyceride and glucose levels”.
For `O=C(/C=C/c1ccc(O)c(O)c1)O[C@@H]1C[C@](O)(C(=O)O)C[C@@H](OC(=O)/C=C/c2ccc(O)c(O)c2)[C@H]1O` [isochlorogenic acid A], the IC50 (ACLY [6]; [8]) is given as 100 nM.
In the case of `C[C@@H]1C[C@H]2O[C@@H]2/C=C\C=C\C(=O)Cc2c(Cl)c(O)cc(O)c2C(=O)O1` [radicicol], the Ki (ACLY [6]; [8]) is listed as 10000 nM.
With `O=c1c(O)c(-c2ccc(O)c(O)c2)oc2cc(O)cc(O)c12` [compound 29, Quercetin] the IC50 (ACLY [1]) was 860 ± 50 nM, the inhibition rate (ACLY [1]) was 91.09% and the “fold more active compared with kaempferol” value (ACLY [1]; ratio of IC50 values) was 10 fold. For the same compound, the “critical aggregation concentration (CAC)” value [5] was 6.47 µM.
`O=C1c2c(O)cc(O)cc2OC(c2ccc(O)c(O)c2)C1O` (centres unmarked) [compound 19, Taxifolin] showed an IC50 (ACLY [1]) of 2540 ± 250 nM.
Work on `O=c1c(O)c(-c2ccc(O)c(O)c2)oc2c(O)c(O)cc(O)c12` [compound 93, Gossypetin] yielded an IC50 (ACLY [1]) of 310 ± 20 nM.
With `C[C@@H]1O[C@@H](O[C@H]2[C@H](Oc3cc(O)c4c(=O)cc(-c5ccc(O)c(O)c5)oc4c3)O[C@H](CO)[C@@H](O)[C@@H]2O)[C@H](O)[C@H](O)[C@H]1O` [compound 15, Lonicerin] the IC50 (ACLY [1]) was 1430 ± 440 nM.
For `COC(=O)c1cc(Cl)c(O)c(S(=O)(=O)Nc2cc(-c3ccccc3)c(F)cc2F)c1` [NDI–091143], the potency (human ACLY) is listed as “nanomolar potency”.
With `O=C(O)[C@H]1O[C@@H](Oc2cc(O)c3c(=O)cc(-c4ccc(O)c(O)c4)oc3c2)[C@H](O)[C@@H](O)[C@@H]1O` [compound 5, Luteolin 7-O-glucuronide] the IC50 (ACLY [1]) was 1470 ± 200 nM.
`Oc1cc(O)c2cc(O)c(-c3ccc(O)c(O)c3)[o+]c2c1` [compound 74, Cyanidin] gave an IC50 (ACLY [1]) of 1290 ± 140 nM.
In the case of antimycin, the Ki (ACLY [6]; [8]) is listed as 4000 nM.
